# Measurements taken from ChEMBL document CHEMBL5214905 (J Med Chem, 2021).
# Activity calls are given as the source filed them. The rule behind the calls is not given here.
# Columns and labels:
# [1] = Volume of distribution at steady state in Sprague-Dawley rat plasma at 100 mg/kg, po measured after 0.083 to 24 hrs by HPLC analysis; assay type: ADME, organism-based; settings: in vivo, time 0.083-24 hrs
# [2] = Toxicity in MPTP induced C57BL/6J mouse neurodegenerative model assessed as no change in lung weight treated with MPTP for 7 days followed by compound administration at 10 to 30 mg/kg, po measured upto 32 days; assay type: organism-based; settings: in vivo, 768 h, dose 10-30 mg/kg, time < 32 day
# [3] = Toxicity in MPTP induced C57BL/6J mouse neurodegenerative model assessed as no change in spleen weight treated with MPTP for 7 days followed by compound administration at 10 to 30 mg/kg, po measured upto 32 days; assay type: organism-based; settings: in vivo, 768 h, dose 10-30 mg/kg, time < 32 day
# Mus musculus [4] = assay: In vivo antiinflammatory activity in MPTP induced C57BL/6J mouse neurodegenerative model assessed as decrease in TNF-alpha expression treated with MPTP for 7 days followed by compound administration at 30 mg/kg, po by Western blotting analysis; assay type: functional, organism-based
# Mus musculus [5] = assay: Neuroprotective activity in MPTP induced C57BL/6J mouse neurodegenerative model assessed as normal fiber innervation in brain treated with MPTP for 7 days followed by compound administration at 30 mg/kg, po by IHC staining method; assay type: functional, organism-based
# [6] = Plasma protein binding in Kunming mouse assessed as binding rate by LC-MS/MS analysis relative to control; assay type: ADME; settings: read-out: PPB (converted)
# [7] = Toxicity in MPTP induced C57BL/6J mouse neurodegenerative model assessed as no change in heart weight treated with MPTP for 7 days followed by compound administration at 10 to 30 mg/kg, po measured upto 32 days; assay type: organism-based; settings: in vivo, 768 h, dose 10-30 mg/kg, time < 32 day
# BCRP [8] = assay: Apparent permeability in human Caco-2 expressing BCRP cells across basolateral to apical side in presence of novobiocin; assay type: ADME, cell-based; settings: Caco-2, with novobiocin (concentration not stated), read-out: permeability
# Mus musculus [9] = assay: Neuroprotective activity in MPTP induced C57BL/6J mouse neurodegenerative model assessed as no change in IDO1 expression in brain striatum treated with MPTP for 7 days followed by compound administration at 30 mg/kg, po by Western blotting analysis; assay type: functional, organism-based
# MDR1 [10] = assay: Apparent permeability in MDCKII expressing MDR1 cells across basolateral to apical side; assay type: ADME, cell-based, Canis lupus familiaris, MDCK-II; settings: dog, MDCK-MDR1; read-out: permeability
# [11] = molecular target: T1, Indoleamine 2,3-dioxygenase 1 (Homo sapiens, UniProt P14902); assay: Inhibition of human IDO1 (12 to 403 aa) expressed in Escherichia coli Transetta (DE3) by nanodrop 2000c spectrophotometric analysis
# T1 sequence (P14902 whole entry, the tested form may be a part): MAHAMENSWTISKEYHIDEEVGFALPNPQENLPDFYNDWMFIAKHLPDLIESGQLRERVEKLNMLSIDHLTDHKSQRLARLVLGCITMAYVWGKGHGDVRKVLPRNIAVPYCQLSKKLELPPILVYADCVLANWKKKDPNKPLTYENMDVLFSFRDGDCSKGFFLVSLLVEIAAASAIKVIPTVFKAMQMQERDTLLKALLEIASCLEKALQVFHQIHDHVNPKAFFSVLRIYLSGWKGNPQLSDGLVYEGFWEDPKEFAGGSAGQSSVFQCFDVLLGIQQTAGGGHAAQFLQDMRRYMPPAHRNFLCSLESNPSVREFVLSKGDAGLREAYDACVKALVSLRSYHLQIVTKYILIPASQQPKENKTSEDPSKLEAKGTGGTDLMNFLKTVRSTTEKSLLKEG
# [12] = molecular target: Glycogen synthase kinase-3 beta (Homo sapiens) (UniProt P49841); assay: Inhibition of human wildtype full length GSK3 beta expressed in bacterial system at 10 uM relative to control
# Glycogen synthase kinase-3 beta (Homo sapiens), sequence (P49841 whole entry, looked up): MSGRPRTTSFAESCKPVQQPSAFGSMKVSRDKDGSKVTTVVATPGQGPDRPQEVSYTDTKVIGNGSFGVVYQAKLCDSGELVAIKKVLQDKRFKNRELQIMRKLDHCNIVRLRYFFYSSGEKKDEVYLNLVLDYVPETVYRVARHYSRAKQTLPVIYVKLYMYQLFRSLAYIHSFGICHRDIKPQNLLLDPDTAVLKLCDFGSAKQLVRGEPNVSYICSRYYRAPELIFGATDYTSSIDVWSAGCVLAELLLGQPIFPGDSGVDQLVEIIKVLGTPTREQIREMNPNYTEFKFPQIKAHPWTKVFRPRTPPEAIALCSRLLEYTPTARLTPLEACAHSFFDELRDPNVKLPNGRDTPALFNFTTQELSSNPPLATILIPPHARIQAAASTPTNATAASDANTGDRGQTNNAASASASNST
# Mus musculus [13] = assay: Neuroprotective activity in MPTP induced C57BL/6J mouse neurodegenerative model treated with MPTP for 7 days followed by compound administration at 10 to 30 mg/kg, po measured on day 6 to 12 upto 180 secs at 25 rpm by rota-rod test; assay type: functional, organism-based; settings: dose 10-30 mg/kg, time 6-12 day
# BCRP [14] = assay: Permeability in human Caco-2 expressing BCRP cells across basolateral to apical side by measuring ratio of the final amount of the compound in donor and receiver chambers to the initial amount of the compound in the donor chamber in presence of novobiocin relative to control; assay type: ADME, cell-based; settings: Caco-2, with novobiocin (concentration not stated)
# MDR1 [15] = assay: Permeability in MDCKII expressing MDR1 cells across apical to basolateral side by measuring ratio of the final amount of the compound in donor and receiver chambers to the initial amount of the compound in the donor chamber relative to control; assay type: ADME, cell-based, Canis lupus familiaris, MDCK-II; settings: dog, MDCK-MDR1
# [16] = Clearance in Sprague-Dawley rat plasma at 100 mg/kg, po measured after 0.083 to 24 hrs by HPLC analysis; assay type: ADME, organism-based; settings: time 0.083-24 hrs
# [17] = molecular target: Dual specificity tyrosine-phosphorylation-regulated kinase 1B (Homo sapiens) (UniProt Q9Y463); assay: Inhibition of human wildtype full length DYRK1B expressed in bacterial system at 10 uM relative to control
# Dual specificity tyrosine-phosphorylation-regulated kinase 1B (Homo sapiens), sequence (Q9Y463 whole entry, looked up): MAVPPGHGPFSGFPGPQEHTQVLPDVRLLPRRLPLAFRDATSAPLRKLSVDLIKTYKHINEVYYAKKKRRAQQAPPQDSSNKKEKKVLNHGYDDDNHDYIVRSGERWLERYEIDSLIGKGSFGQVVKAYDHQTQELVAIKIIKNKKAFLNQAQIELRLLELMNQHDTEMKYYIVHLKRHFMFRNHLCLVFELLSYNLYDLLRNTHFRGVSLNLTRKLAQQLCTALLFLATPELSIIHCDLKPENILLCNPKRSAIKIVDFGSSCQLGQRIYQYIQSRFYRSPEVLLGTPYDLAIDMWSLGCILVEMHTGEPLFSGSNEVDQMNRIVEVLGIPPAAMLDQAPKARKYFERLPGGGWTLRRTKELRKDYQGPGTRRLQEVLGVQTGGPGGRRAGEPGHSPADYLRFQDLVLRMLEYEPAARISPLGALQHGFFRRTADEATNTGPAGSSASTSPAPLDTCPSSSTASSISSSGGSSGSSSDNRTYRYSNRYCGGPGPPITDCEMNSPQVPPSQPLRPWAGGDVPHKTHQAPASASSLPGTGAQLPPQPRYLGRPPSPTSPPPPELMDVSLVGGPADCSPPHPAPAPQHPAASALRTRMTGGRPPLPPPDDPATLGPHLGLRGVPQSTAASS
# Mus musculus [18] = assay: Neuroprotective activity in MPTP induced neurodegenerative C57BL/6J mouse model assessed as decrease in tryptophan metabolite QUIN in mouse substantia nigra treated with MPTP for 7 days followed by compound administration at 30 mg/kg, po by LC-MS/MS analysis; assay type: functional, organism-based
# [19] = Toxicity in MPTP induced C57BL/6J mouse neurodegenerative model assessed as no change in body weight treated with MPTP for 7 days followed by compound administration at 10 to 100 mg/kg, po measured upto 32 days; assay type: organism-based; settings: in vivo, 768 h, dose 10-100 mg/kg, time < 32 day
# [20] = Protein binding in Kunming mouse brain assessed as binding rate by LC-MS/MS analysis relative to control; assay type: ADME, tissue-based; settings: read-out: PB (converted)
# [21] = Half life in Sprague-Dawley rat plasma at 100 mg/kg, po by HPLC analysis; assay type: ADME, organism-based
# Mus musculus [22] = assay: Neuroprotective activity in MPTP induced neurodegenerative C57BL/6J mouse model assessed as decrease in tryptophan metabolite QUIN in mouse striatum treated with MPTP for 7 days followed by compound administration at 30 mg/kg, po by LC-MS/MS analysis; assay type: functional, organism-based
# [23] = Unbound fraction in mouse plasma by LC-MS/MS analysis relative to control; assay type: ADME
# BCRP [24] = assay: Apparent permeability in human Caco-2 expressing BCRP cells across apical to basolateral side in presence of novobiocin; assay type: ADME, cell-based; settings: Caco-2, with novobiocin (concentration not stated), read-out: permeability
# [25] = Volume of distribution at steady state in Sprague-Dawley rat plasma at 100 mg/kg, iv measured after 0.083 to 24 hrs by HPLC analysis; assay type: ADME, organism-based; settings: time 0.083-24 hrs, read-out: Vdss
# [26] = Tmax in Sprague-Dawley rat plasma at 100 mg/kg, po measured after 0.083 to 24 hrs by HPLC analysis; assay type: ADME, organism-based; settings: time 0.083-24 hrs
# Mus musculus [27] = assay: Neuroprotective activity in MPTP induced neurodegenerative C57BL/6J mouse model assessed as decrease in tryptophan metabolite NFK in mouse striatum treated with MPTP for 7 days followed by compound administration at 30 mg/kg, po by LC-MS/MS analysis; assay type: functional, organism-based
# BCRP [28] = assay: Apparent permeability in human Caco-2 expressing BCRP cells across basolateral to apical side; assay type: ADME, cell-based; settings: read-out: permeability
# [29] = molecular target: T1, Indoleamine 2,3-dioxygenase 1; assay: Inhibition of IDO1 in IFN-gamma induced overexpressing human HeLa cells; assay type: cell-based
# Mus musculus [30] = assay: Neuroprotective activity in MPTP induced neurodegenerative C57BL/6J mouse model assessed as decrease in tryptophan metabolite NFK in mouse substantia nigra treated with MPTP for 7 days followed by compound administration at 30 mg/kg, po by LC-MS/MS analysis; assay type: functional, organism-based
# [31] = Clearance in Sprague-Dawley rat plasma at 100 mg/kg, iv measured after 0.083 to 24 hrs by HPLC analysis; assay type: ADME, organism-based; settings: time 0.083-24 hrs
# BCRP [32] = assay: Efflux ratio of apparent permeability across basolateral to apical side to apical to basolateral side in human Caco-2 expressing BCRP cells; assay type: ADME, cell-based
# [33] = Ratio of drug concentration in total brain to total plasma in Kunming mouse assessed as blood brain barrier permeability measured at 0.5 to 12 hrs by HPLC analysis; settings: time 0.5-12 hrs
compound,measurement,setting,value
O[C@@H]1CCCC[C@H]1CNc1cc(Br)cc2[nH]ncc12,Vdss,[1],25.45 L/kg
same,Activity,[2],Non-Toxic
same,Activity,[3],Non-Toxic
same,Activity,Mus musculus [4],Active
same,Activity,Mus musculus [5],Active
same,fraction unbound,[6],0.0073
same,Activity,[7],Non-Toxic
same,Papp B→A,BCRP [8],9.97 ×10⁻⁶ cm/s
same,Activity,Mus musculus [9],Active
same,Papp B→A,MDR1 [10],10.3 ×10⁻⁶ cm/s
same,IC50,[11],0.64 µM
same,inhibition,[12],> 90%
same,Activity,Mus musculus [13],Active
same,recovery,BCRP [14],74.9%
same,recovery,MDR1 [15],55.1%
same,CL/F,[16],69.7 mL/min/kg
same,inhibition,[17],> 90%
same,Activity,Mus musculus [18],Active
same,Activity,[19],Non-Toxic
same,fraction unbound,[20],0.0025
same,half-life,[21],4.27 h
same,Activity,Mus musculus [22],Active
same,Fu,[23],0.73%
same,Papp A→B,BCRP [24],19.4 ×10⁻⁶ cm/s
same,Vd,[25],28.1 L/kg
same,Tmax,[26],0.42 h
same,Activity,Mus musculus [27],Active
same,Papp B→A,BCRP [28],10.4 ×10⁻⁶ cm/s
same,EC50,[29],5.5 µM
same,Activity,Mus musculus [30],Active
same,clearance,[31],40.5 mL/min/kg
same,efflux ratio,BCRP [32],0.56
same,Ratio,[33],0.81%
